# Experimental data taken from publication PMC9848351, “Discovery of new pyridine-quinoline hybrids as competitive and non-competitive PIM-1 kinase inhibitors with apoptosis induction and caspase 3/7 activation capabilities” (Journal of Enzyme Inhibition and Medicinal Chemistry, 2023).
# System: caspase 3/7 in HepG-2 cells
# Test: Caspase 3/7 activation assay (Apo-ONE kit)
# Format: cell-based, human
# Conditions: caspase 3/7, relative to untreated HepG2 cells; mean ± SEM
# Text: The percentage of caspase 3/7 activation was quantified using the Apo-ONE ® caspase 3/7 kit following the manufacturer’s instructions[27] (Supplementary Page S56).
# It’s a fluorescence assay that measures caspase-3 and −7 activities. Caspase 3/7 activators are well known as apoptotic inducers.
# Caspase 3/7 activation assay
# The Apo-ONE ® caspase 3/7 kit following the manufacturer’s instructions was used for quantifying the percentage of caspase 3/7 activation. The fluorescence substrate present in the kit was cut by caspases to produce fluorescence signal. This signal was measured by the fluorescence omega microplate reader (BMG LabTech, Germany) at 490 nm excitation and 520 nm emission.
# Data were expressed as mean ± standard error of the mean (SEM). Statistical significance was estimated by the multiple comparisons Tukey post-hoc analysis of variance (ANOVA) using the SPSS16 program. When p < 0.05, the differences were marked as statistically significant.
# PIM-1 and PIM-2 kinase inhibitory activity
# PIM-1 and PIM-2 kinase utilizing PIM-1 and PIM-2 Kinase Assay Kit – Promega Corporation catalog #V4032, following the manufacturer’s instructions 26 […]
# Information Classification: General
compound,measurement,value
"N#Cc1c(-c2cc3ccccc3[nH]c2=O)cc(-c2cccc(O)c2)nc1S [14a, 6-(3-Hydroxyphenyl)-2-mercapto-4-(2-oxo-1,2-dihydroquinolin-3-yl)pyridine-3-carbonitrile]",Fold increase in caspase activity,1.86 ± 0.11 fold
